Measured values taken from paper PMC12295440, “C-Terminal Analogues of Camostat Retain TMPRSS2 Protease Inhibition: New Synthetic Directions for Antiviral Repurposing of Guanidinium-Based Drugs in Respiratory Infections” (International Journal of Molecular Sciences, 2025).
Where “and” joins values, the source holds several entries; their conditions need not be identical. Equal entries are not always repeated.

Target: T1, TMPRSS2 (Homo sapiens, UniProt O15393)
T1 construct: purchased BPS Bioscience 780837
T1 sequence (O15393 whole entry): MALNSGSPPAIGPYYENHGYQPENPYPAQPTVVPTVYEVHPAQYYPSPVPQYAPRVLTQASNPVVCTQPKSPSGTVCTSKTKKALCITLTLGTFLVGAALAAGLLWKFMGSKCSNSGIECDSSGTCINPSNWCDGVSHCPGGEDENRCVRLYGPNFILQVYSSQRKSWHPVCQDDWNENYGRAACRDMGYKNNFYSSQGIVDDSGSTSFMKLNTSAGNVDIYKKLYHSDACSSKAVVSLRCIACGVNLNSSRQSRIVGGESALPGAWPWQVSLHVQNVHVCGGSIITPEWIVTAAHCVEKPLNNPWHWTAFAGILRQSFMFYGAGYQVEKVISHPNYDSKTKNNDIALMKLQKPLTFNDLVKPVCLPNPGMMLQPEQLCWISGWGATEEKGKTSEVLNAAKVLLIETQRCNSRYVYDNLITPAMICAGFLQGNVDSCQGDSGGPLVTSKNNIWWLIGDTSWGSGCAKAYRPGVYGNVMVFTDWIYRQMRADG
Assay: TMPRSS2 fluorogenic protease inhibition assay (BPS Bioscience kit)
Format: biochemical
Conditions: for IC50: fluorogenic substrate, 30 min pre-incubation at room temperature, average of two independent experiments in duplicate (N = 4), read-out: IC50, in vitro TMPRSS2 enzyme inhibition

Compound	IC50	TMPRSS2 inhibition (in words) (fluorogenic assay, concentrations 0.007-0.1054 µM)
N=C(N)Nc1ccc(C(=O)Oc2ccc(CC(=O)OCC(=O)N3CCOCC3)cc2)cc1 [Compound 1d]	1.79 nM and 1.8 nM	
CNC(=O)COC(=O)Cc1ccc(OC(=O)c2ccc(NC(=N)N)cc2)cc1 [Compound 1c]	1.27 nM and 1.3 nM	
CN(C)C(=O)CNC(=O)Cc1ccc(NC(=O)c2ccc(NC(=N)N)cc2)cc1 [Compound 1e]		fell out of the range of the assay
